According to patent publication US20100056527A1, “BENZOFURAN COMPOUNDS USEFUL IN THE TREATMENT OF CONDITIONS MEDIATED BY THE ACTION OF PGE2 AT THE EP1 RECEPTOR” (Glaxo Group Limited, priority 2007, published 2010):

Target: T1, human EP1 receptor (Homo sapiens, UniProt P34995)
T1 construct: expressed in transfected cells; host or cells: CHO-K1 cells (membrane fraction)
T1 sequence (P34995 1-402): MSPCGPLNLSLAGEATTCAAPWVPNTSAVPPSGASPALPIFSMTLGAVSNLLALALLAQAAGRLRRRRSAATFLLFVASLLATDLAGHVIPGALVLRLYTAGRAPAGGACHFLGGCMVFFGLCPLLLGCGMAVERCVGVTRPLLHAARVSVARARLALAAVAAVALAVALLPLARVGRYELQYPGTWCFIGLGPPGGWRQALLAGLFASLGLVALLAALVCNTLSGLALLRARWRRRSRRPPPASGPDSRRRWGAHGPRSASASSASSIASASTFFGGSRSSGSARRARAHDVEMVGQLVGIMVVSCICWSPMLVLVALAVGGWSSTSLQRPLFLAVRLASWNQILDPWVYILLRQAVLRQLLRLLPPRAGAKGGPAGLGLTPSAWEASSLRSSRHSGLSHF
Assay: human EP1 calcium mobilization assay (FLIPR, PGE2-induced [Ca2+]i)
Type: cell-based
Conditions: CHO-K1 cells transfected with EP1 cDNA; antagonism of PGE2; averages of a number of experiments
Description: Briefly, the antagonist properties of compounds are assessed by their ability to inhibit the mobilization of intracellular calcium ([Ca^2+]i) in response to activation of EP1 or EP3 receptors by the natural agonist hormone prostaglandin E2 (PGE2). Increasing concentrations of antagonist reduce the amount of calcium that a given concentration of PGE2 can mobilize. The net effect is to displace the PGE2 concentration-effect curve to higher concentrations of PGE2. The amount of calcium produced is assessed using a calcium-sensitive fluorescent dye such as Fluo-4, AM and a suitable instrument such as a Fluorimetric Imaging Plate Reader (FLIPR). Increasing amounts of [Ca^2+]i produced by receptor activation increase the amount of fluorescence produced by the dye and give rise to an increasing signal. The signal may be detected using the FLIPR instrument and the data generated may be analyzed with suitable curve-fitting software.
The human EP1 or EP3 calcium mobilization assay (hereafter referred to as ‘the calcium assay’) utilises Chinese hamster ovary-K1 (CHO—K1) cells into which a stable (PClN; BioTechniques 20 (1996): 102-110) vector containing either EP1 or EP3 cDNA has previously been transfected. Cells are cultured in suitable flasks containing culture medium such as DMEM:F-12 supplemented with 10% v/v foetal calf serum, 2 mM L-glutamine, 0.25 mg/ml geneticin, 100 μM flurbiprofen and 10 μg/ml puromycin.
For assay, cells are harvested using a proprietary reagent that dislodges cells such as Versene. Cells are re-suspended in a suitable quantity of fresh culture media for introduction into a 384-well plate. Following incubation for 24 hours at 37° C. the culture media is replaced with a medium containing Fluo-4 and the detergent pluronic acid, and a further incubation takes place. Concentrations of compounds are then added to the plate in order to construct concentration-effect curves. This may be performed on the FLIPR in order to assess the agonist properties of the compounds. Concentrations of PGE2 are then added to the plate in order to assess the antagonist properties of the compounds.
The data so generated may be analyzed by means of a computerised curve-fitting routine. The concentration of compound that elicits a half-maximal inhibition of the calcium mobilization induced by PGE2 (pIC50) may then be estimated.
The compounds of Examples 1-28 and 30-156 were tested in the human EP1 calcium mobilization assay. The results are expressed as functional pKi values. A functional pKi is the negative logarithms of the antagonist dissociation constant as determined in the human EP1 calcium mobilization assay. The results given are averages of a number of experiments.

| functional pKi in the human EP1 calcium mobilization assay | Compound |
| --- | --- |
| did not show activity | Cl.N#Cc1ccc(-c2cc3cc(Cl)cc(Cc4ccc(C(=O)NCC5CCNCC5)o4)c3o2)cc1 [Example 37, 5-{[5-Chloro-2-(4-cyanophenyl)-1-benzofuran-7-yl]methyl}-N-(4-piperidinylmethyl)-2-furancarboxamide hydrochloride] |
| did not show activity | Cc1cc(C(=O)Nc2ccncc2)nn1Cc1cc(Cl)cc2cc(-c3ccccc3)oc12 [Example 68, 1-[(5-chloro-2-phenyl-1-benzofuran-7-yl)methyl]-5-methyl-N-4-pyridinyl-1H-pyrazole-3-carboxamide] |
| did not show activity | Cc1cc(C(=O)NC(C)(C)C)nn1Cc1cc(Cl)cc2cc(-c3ccc(F)cc3F)oc12 [Example 112, 1-{[5-chloro-2-(2,4-difluorophenyl)-1-benzofuran-7-yl]methyl}-N-(1,1-dimethylethyl)-5-methyl-1H-pyrazole-3-carboxamide] |
| did not show activity | CC(C)(C)OC(=O)Nc1ccc(Cc2cc(Cl)cc3cc(-c4ccccc4)oc23)o1 [Example 156, 1,1-Dimethylethyl {5-[(5-chloro-2-phenyl-1-benzofuran-7-yl)methyl]-2-furanyl}carbamate] |
